Tests used:
[1] = system: muscle atrophy model mice (immobilized mice); test: Effects of hydroxylated fatty acid on muscle atrophy model mice (hind limbs immobilized with plastic casts); assay type: in vivo, C57BL/6J mice; conditions: 1% in diet for 20 days (immobilization for the latter 10 days); for loss of soleus muscle (muscle weight per body weight): Fig. 2, n = 6; for loss of gastrocnemius muscle (gastrocnemius muscle weight per body weight): Fig. 3, n = 6; for loss of soleus muscle cross-sectional area: HE staining, 400 fibers pooled from 2 mice, Fig. 4
From the text: C57BL/6J mice (male, 10 weeks old) were fed a normal diet (CE-2, CLEA Japan, Inc.), a 1% linoleic acid-containing diet (LA), or a 1% 10-hydroxy-cis-12-octadecenoic acid-containing diet (HYA) (LA manufactured by Sigma-Aldrich and HYA manufactured by Noster Inc. were used) each for 10 days. Then, under general anesthesia, both hind limbs of the mice were immobilized with plastic casts to create immobilized mice. After 10 days of immobilization (still receiving the normal diet or each mixed diet), the mice were sacrificed and weighed. Both soleus muscles were then collected and weighed. The comparison results of muscle weight per body weight are shown in Fig. 2 (n = 6, *P < 0.05, **P < 0.01, 2-way ANOVA with Bonferroni's post hoc test). Furthermore, under the same conditions, both gastrocnemius muscles were collected and weighed. The comparison results of gastrocnemius muscle weight per body weight are shown in Fig. 3 (n = 6, *P < 0.05, **P < 0.01, 2-way ANOVA with Bonferroni's post hoc test).
In addition, the formalin-soaked soleus muscles were cut in the cross section at its largest diameter, and sections were prepared. After HE staining, the cross-sectional area of the muscle fibers was measured. The comparison results of soleus muscle cross-sectional area are shown in Fig. 4 (the area of 400 fibers pooled from 2 mice was measured and averaged for each condition, **P < 0.01, 2-way ANOVA with Bonferroni's post hoc test).

[2] = system: muscle atrophy model mice (high-fat diet administered mice); test: Effects of hydroxylated fatty acid on muscle atrophy model mice (high-fat diet administration); assay type: in vivo, C57BL/6J mice; conditions: 1% added to high-fat diet for 14 days, compared to administration of a high-fat diet alone; for soleus muscle weight (per body weight): Fig. 7, n = 12; for gastrocnemius muscle weight (per body weight): Fig. 8, n = 12; for tibialis anterior muscle cross-sectional area: HE staining, 400 fibers pooled from 2 mice, Fig. 9(B)
Method: C57BL/6J mice (male, 10 weeks old) were fed a normal diet (CE-2, CLEA Japan, Inc.), a high-fat diet (HFD32, CLEA Japan, Inc.), a 1% HYA-added high-fat diet, or a 1% LA (linoleic acid)-added high-fat diet (HYA manufactured by Noster Inc., LA manufactured by Sigma-Aldrich were used) each for 14 days to create a muscle atrophy model mouse by high-fat diet administration, and the effects by the administration of hydroxylated fatty acid were evaluated.
C57BL/6J mice (male, 10 weeks old) were fed a normal diet (CE-2, CLEA Japan, Inc.), a high-fat diet (HFD32, CLEA Japan, Inc.), a 1% HYA-added high-fat diet, or a 1% LA (linoleic acid)-added high-fat diet each for 14 days. After feeding, the mice were sacrificed and weighed. Both soleus muscles were collected and weighed. The comparison results of soleus muscle weight per body weight are shown in Fig. 7 (n = 12, **P < 0.01, 2-way ANOVA with Bonferroni's post hoc test). Furthermore, under the same conditions, both gastrocnemius muscles were collected and weighed. The comparison results of gastrocnemius muscle weight per body weight are shown in Fig. 8 (n = 12, **P < 0.01, 2-way ANOVA with Bonferroni's post hoc test).
In addition, the formalin-soaked tibialis anterior muscle was cut in the cross section at its largest diameter, and sections were prepared. After HE staining (Fig. 9(A)), the cross-sectional area of the muscle fibers was measured. The comparison results of tibialis anterior muscle cross-sectional area are shown in Fig. 9(B) (the area of 400 fibers pooled from 2 mice was measured and averaged for each condition, **P < 0.01, 2-way ANOVA with Bonferroni's post hoc test).

[3] = compared to administration of a normal diet
[4] = compared to administration of linoleic acid

Row | SMILES | loss of soleus muscle (muscle weight per body weight) [1, 3] | loss of gastrocnemius muscle (gastrocnemius muscle weight per body weight) [1, 3] | loss of soleus muscle cross-sectional area [1, 3] | loss of gastrocnemius muscle (gastrocnemius muscle weight per body weight) [1, 4] | loss of soleus muscle cross-sectional area [1, 4] | soleus muscle weight (per body weight) [2] | gastrocnemius muscle weight (per body weight) [2] | tibialis anterior muscle cross-sectional area [2]
1 | CCCCC/C=C\CC(O)CCCCCCCCC(=O)O (stereo not drawn) [HYA, 10-hydroxy-cis-12-octadecenoic acid] | significantly inhibited | significantly inhibited | significantly inhibited | significantly inhibited | significantly inhibited | significantly increased | significantly increased | significantly increased
2 | CCCCC/C=C\C/C=C\CCCCCCCC(=O)O [linoleic acid, reference compound] | did not significantly inhibit | did not significantly inhibit | did not significantly inhibit |  |  | a tendency toward an increase | a tendency toward an increase | a tendency toward an increase

Source: patent publication EP4772177A1, “MUSCLE ATROPHY INHIBITOR” (National University Corporation Kobe University, priority 2023, dated 2025)
